From paper PMC9110600, “Purification, identification and characterization of Nag2 N-acetylglucosaminidase from Trichoderma virens strain mango” (Botanical Studies, 2022)

Molecular target: T1, TvmNAG2 (Trichoderma virens, UniProt G9MXZ5)
T1 construct: gene NAG2; mature (signal peptide removed)
Assay: p-nitrophenol release at […] nm, Lineweaver-Burk
Format: biochemical
Conditions: standard assay: 50 mM phosphate buffer pH 5, 65 °C, 30 min

T1 sequence (G9MXZ5 entry or part of it): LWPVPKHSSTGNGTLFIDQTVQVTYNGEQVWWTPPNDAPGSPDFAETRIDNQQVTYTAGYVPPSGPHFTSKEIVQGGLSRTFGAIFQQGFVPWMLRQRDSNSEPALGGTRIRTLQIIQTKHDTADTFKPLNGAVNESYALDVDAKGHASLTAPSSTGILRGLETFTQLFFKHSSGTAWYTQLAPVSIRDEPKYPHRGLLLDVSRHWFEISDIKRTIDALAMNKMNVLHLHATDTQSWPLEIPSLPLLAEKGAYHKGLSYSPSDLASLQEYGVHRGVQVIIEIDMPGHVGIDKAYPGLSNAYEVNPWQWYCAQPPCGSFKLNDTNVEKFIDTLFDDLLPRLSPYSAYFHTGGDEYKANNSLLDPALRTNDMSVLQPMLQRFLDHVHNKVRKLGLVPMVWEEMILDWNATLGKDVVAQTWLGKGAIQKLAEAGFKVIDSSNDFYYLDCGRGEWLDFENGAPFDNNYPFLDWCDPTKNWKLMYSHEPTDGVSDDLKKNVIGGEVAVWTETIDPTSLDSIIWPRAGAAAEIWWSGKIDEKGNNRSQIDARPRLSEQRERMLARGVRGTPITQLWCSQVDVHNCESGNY

Km: ~450 µM
Structure (SMILES): CC(=O)N[C@H]1[C@H](Oc2ccc([N+](=O)[O-])cc2)O[C@H](CO)[C@@H](O)[C@@H]1O [pNP-NAG]
